We go through three compounds from patent publication US20240246942A1, “KINASE INHIBITORS FOR THE TREATMENT OF NEURODEGENERATIVE DISEASES” (priority 2020, published 2024).

Holding throughout (assay): biochemical
The target in test [1] is T1, panel of 374 wild-type kinases (Homo sapiens, UniProt O00311).
T1 construct: purchased Reaction Biology Corporation
To be noted: read-out: % Enzyme Activity (relative to DMSO controls), CDC7/DBF4.

Test [2] has as its target T2, panel of 374 wild-type kinases (Homo sapiens, UniProt O14733).
T2 construct: purchased Reaction Biology Corporation
T2 sequence (O14733 1-419): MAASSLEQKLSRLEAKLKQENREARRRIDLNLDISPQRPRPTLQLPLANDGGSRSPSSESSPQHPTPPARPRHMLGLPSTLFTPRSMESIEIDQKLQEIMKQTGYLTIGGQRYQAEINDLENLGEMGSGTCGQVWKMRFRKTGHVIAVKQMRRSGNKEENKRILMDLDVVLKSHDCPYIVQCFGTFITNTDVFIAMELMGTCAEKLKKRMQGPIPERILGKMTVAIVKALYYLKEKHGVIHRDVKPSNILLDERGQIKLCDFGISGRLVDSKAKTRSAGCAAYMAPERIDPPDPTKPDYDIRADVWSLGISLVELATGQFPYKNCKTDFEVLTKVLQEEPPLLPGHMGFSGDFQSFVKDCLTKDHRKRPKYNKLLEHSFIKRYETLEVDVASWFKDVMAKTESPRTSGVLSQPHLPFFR
To be noted: read-out: % Enzyme Activity (relative to DMSO controls), MKK7.

Test [3] addresses T3, panel of 374 wild-type kinases (Homo sapiens, UniProt O43353).
T3 construct: purchased Reaction Biology Corporation
To be noted: read-out: % Enzyme Activity (relative to DMSO controls), kinase RIPK2.

The target in test [4] is T4, panel of 374 wild-type kinases (Homo sapiens, UniProt P37023).
T4 construct: purchased Reaction Biology Corporation
T4 sequence (P37023 22-503): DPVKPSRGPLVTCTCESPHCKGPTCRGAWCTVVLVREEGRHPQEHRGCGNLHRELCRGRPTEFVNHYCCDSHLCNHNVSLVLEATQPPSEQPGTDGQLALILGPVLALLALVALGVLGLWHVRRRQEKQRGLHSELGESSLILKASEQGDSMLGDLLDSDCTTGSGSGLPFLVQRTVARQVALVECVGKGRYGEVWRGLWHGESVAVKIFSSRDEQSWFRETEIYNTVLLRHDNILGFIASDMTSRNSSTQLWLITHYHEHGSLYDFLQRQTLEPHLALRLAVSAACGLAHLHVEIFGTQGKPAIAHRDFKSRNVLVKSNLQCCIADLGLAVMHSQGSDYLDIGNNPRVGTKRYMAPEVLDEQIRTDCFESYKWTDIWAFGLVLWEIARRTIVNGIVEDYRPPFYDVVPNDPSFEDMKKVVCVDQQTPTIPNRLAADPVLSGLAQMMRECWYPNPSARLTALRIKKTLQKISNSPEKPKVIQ
The following applies: read-out: % Enzyme Activity (relative to DMSO controls), ALK1/ACVRL1.

Test [5] addresses T5, panel of 374 wild-type kinases (Homo sapiens, UniProt P49841).
T5 construct: purchased Reaction Biology Corporation
To be noted: read-out: % Enzyme Activity (relative to DMSO controls), GSK3b.

Test [6] deals with T6, panel of 374 wild-type kinases (Homo sapiens, UniProt P57078).
T6 construct: purchased Reaction Biology Corporation
T6 sequence (P57078 1-832): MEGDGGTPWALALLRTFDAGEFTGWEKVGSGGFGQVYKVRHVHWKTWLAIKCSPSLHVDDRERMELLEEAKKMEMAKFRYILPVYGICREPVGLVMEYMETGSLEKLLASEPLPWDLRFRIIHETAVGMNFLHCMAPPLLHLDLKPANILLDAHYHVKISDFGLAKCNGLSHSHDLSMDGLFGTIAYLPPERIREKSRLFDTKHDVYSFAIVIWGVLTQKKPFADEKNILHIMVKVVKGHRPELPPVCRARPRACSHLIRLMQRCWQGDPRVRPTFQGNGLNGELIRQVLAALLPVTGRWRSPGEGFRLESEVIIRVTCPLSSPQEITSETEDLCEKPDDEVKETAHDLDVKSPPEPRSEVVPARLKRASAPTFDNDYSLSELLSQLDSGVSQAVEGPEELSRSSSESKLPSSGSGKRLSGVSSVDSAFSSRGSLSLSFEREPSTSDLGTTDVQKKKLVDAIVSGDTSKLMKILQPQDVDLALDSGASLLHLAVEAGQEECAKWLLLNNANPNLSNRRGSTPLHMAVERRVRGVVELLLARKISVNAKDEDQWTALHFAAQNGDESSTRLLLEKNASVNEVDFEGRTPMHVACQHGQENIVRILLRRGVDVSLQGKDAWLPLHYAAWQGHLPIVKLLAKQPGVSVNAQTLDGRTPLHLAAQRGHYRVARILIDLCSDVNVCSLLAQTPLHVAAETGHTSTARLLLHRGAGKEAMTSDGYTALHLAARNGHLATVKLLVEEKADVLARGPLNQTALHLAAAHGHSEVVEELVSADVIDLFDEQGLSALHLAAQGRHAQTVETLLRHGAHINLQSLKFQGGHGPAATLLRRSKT
To be noted: read-out: % Enzyme Activity (relative to DMSO controls), kinase RIPK4.

In test [7] the target is T7, panel of 374 wild-type kinases (Homo sapiens, UniProt Q13188).
T7 construct: purchased Reaction Biology Corporation
T7 sequence (Q13188 1-491): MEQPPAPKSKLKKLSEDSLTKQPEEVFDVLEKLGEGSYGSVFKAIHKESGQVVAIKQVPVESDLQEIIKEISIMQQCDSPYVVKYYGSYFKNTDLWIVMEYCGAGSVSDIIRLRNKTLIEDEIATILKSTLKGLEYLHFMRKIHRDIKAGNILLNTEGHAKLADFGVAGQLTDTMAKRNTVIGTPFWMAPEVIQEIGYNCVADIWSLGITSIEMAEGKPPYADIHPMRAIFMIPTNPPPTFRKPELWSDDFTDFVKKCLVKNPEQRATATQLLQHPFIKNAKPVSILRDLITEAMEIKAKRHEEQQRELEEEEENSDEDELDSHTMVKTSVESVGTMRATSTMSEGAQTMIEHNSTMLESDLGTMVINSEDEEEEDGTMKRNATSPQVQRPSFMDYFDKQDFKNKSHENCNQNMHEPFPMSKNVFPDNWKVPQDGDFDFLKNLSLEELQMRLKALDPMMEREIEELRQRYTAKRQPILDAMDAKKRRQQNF
The following applies: read-out: % Enzyme Activity (relative to DMSO controls), MST2/STK3.

The target of test [8] is T8, panel of 374 wild-type kinases (Homo sapiens, UniProt Q13627).
T8 construct: purchased Reaction Biology Corporation
To be noted: read-out: % Enzyme Activity (relative to DMSO controls), DYRK1/DYRK1A.

Molecules are shown by their SMILES.

T5 sequence (P49841 whole entry): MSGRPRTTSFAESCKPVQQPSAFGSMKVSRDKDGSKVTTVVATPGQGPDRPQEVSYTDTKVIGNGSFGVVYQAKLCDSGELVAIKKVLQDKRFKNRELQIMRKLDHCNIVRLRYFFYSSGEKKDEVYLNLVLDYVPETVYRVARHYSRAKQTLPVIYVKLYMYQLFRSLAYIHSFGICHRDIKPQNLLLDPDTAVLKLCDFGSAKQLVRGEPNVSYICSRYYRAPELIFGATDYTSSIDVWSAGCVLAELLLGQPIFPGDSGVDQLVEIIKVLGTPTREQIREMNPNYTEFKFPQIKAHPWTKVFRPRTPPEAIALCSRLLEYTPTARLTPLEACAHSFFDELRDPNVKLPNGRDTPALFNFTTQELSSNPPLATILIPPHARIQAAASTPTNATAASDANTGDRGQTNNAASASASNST
T1 sequence (O00311 whole entry): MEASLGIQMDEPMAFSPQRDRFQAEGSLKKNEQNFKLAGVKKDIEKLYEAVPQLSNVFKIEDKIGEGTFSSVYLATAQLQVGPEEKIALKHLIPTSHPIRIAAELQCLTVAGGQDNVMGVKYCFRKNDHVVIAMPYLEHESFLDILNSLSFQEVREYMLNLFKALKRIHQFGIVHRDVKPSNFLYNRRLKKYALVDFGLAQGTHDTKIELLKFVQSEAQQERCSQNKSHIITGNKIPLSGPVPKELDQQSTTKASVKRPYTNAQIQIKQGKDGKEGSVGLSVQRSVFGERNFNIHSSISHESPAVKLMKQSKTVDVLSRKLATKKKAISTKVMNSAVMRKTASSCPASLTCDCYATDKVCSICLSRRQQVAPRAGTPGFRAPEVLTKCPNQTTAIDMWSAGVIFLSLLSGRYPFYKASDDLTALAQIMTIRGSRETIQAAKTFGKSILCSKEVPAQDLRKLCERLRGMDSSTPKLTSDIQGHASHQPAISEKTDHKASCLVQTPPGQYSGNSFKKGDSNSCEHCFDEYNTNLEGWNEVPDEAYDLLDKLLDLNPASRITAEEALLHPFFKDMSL
T3 sequence (O43353 whole entry): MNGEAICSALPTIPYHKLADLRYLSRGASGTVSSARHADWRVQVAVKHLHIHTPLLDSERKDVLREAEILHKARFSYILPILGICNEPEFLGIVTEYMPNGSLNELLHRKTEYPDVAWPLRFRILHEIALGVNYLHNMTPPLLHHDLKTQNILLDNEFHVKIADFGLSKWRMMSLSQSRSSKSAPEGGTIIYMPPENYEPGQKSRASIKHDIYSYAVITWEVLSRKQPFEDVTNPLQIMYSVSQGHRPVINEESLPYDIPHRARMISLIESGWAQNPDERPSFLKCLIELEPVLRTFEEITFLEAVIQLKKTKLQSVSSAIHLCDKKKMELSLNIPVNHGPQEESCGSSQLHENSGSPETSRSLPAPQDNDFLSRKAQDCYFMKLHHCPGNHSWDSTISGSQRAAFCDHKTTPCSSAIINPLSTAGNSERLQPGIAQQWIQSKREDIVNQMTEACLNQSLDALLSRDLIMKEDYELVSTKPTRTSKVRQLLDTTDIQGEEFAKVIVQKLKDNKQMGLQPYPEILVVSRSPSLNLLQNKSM

`O=C(Nc1cnn(-c2csc(C(=O)NC3COC3)c2)c1)Nc1ccccc1Cl` [Compound 17, 4-(4-(3-(2-chlorophenyl)ureido)-1H-pyrazol-1-yl)-N-(oxetan-3-yl)thiophene-2-carboxamide]: the remaining activity at 5 µM was 111% in test [1]; 112% in test [2]; 120% in test [3]; 107% in test [4]; 95% in test [5]; 89.2% in test [6]. The remaining activity at 5 µM in test [7] worked out at 120%; in test [8], 86%.

As to `O=C(Nc1cnn(-c2csc(C(=O)NC3COC3)c2)c1)Nc1c(F)cccc1Cl` [Compound 25, 4-(4-(3-(2-chloro-6-fluorophenyl)ureido)-1H-pyrazol-1-yl)-N-(oxetan-3-yl)thiophene-2-carboxamide], the remaining activity at 5 µM stood at 84.3% in test [1]; 135% in test [2]; 80.2% in test [3]; 120% in test [4]; 95.7% in test [5]; 96.7% in test [6]. In addition, the remaining activity at 5 µM is 93.2% in test [7] and 75.1% in test [8].

In the case of `Cc1sc(C(=O)NC2COC2)cc1-n1cc(NC(=O)Nc2c(F)cccc2Cl)cn1` [Compound 27, 4-(4-(3-(2-chloro-6-fluorophenyl)ureido)-1H-pyrazol-1-yl)-5-methyl-N-(oxetan-3-yl)thiophene-2-carboxamide], the remaining activity at 10 µM in test [1] (10 uM) was 107%; in test [2] (10 uM), 120%; in test [3] (10 uM) it was 89.3%; in test [4] (10 uM), 78.7%; in test [5] (10 uM), 94.9%; in test [6] (10 uM), 103%. Besides, the remaining activity at 10 µM in test [7] (10 uM) was determined as 93.9%; in test [8] (10 uM), 95.5%.
